Laboratory results from patent US9617240B2 (TEIJIN PHARMA LIMITED, priority 2013, dated 2017).

Molecular target: T1, oxidase type xanthine oxidase (derived from buttermilk) (Bos taurus, UniProt P80457)
T1 construct: oxidase type xanthine oxidase (derived from buttermilk, supplied by Calbiochem Novabiochem Corp.); purchased Calbiochem Novabiochem Corp; host or cells: buttermilk (natural source)
Experiment: Xanthine oxidase inhibitory activity (absorbance change at 290 nm)
Assay type: biochemical
Conditions: xanthine substrate, 100 mM phosphate buffer, absorbance at 290 nm for 5 minutes; read-out: Inhibitory Activity (50% inhibitory concentration with respect to oxidase type xanthine oxidase)
Description: The xanthine oxidase inhibitory activity was measured for the compounds synthesized according to the above Examples.
After a test compound was dissolved in DMSO (manufactured by Sigma Co.) so that the concentration is 20 mM, the test compound was prepared and used at a desired concentration at the time of use.
The evaluation of the xanthine oxidase inhibitory activity of the compounds of the present invention was conducted by partially modifying the method described in the literature (Method Enzymatic Analysis, 1, 521-522, 1974). The present evaluation is based on the oxidase type xanthine oxidase inhibitory activity evaluation. That is, a xanthine (manufactured by Sigma Co.) solution prepared at 10 mM in advance using a 20 mM sodium hydroxide solution was adjusted to 30 μM using a 100 mM phosphate buffer solution, and 75 μL/well of each solution was added into a 96-well plate. Aliquots (1.5 μL/well) of each test sample, which was diluted with DMSO so that the concentration is 100 times the final concentration, were added into a 96-well plate, and after mixing, the absorbance at 290 nm was measured by a microplate reader SPECTRA MAX Plus 384 (manufactured by Molecular Devices, LLC). Subsequently, oxidase type xanthine oxidase (derived from buttermilk, supplied by Calbiochem Novabiochem Corp.) was prepared at 30.6 mU/mL using a 100 mM phosphate buffer solution and 73.5 μL/well of each solution was added. Immediately after mixing, the change in absorbance at 290 nm was measured for 5 minutes. The enzyme activity when DMSO was used instead of a test compound solution was defined as 100%, the inhibitory rate of the test compounds was calculated and the 50% inhibitory concentration with respect to oxidase type xanthine oxidase was calculated by fitting to the dose-response curve.
Note that the symbols (+, ++, +++) in the table represent inhibitory activity values as shown below.

T1 sequence (P80457 whole entry): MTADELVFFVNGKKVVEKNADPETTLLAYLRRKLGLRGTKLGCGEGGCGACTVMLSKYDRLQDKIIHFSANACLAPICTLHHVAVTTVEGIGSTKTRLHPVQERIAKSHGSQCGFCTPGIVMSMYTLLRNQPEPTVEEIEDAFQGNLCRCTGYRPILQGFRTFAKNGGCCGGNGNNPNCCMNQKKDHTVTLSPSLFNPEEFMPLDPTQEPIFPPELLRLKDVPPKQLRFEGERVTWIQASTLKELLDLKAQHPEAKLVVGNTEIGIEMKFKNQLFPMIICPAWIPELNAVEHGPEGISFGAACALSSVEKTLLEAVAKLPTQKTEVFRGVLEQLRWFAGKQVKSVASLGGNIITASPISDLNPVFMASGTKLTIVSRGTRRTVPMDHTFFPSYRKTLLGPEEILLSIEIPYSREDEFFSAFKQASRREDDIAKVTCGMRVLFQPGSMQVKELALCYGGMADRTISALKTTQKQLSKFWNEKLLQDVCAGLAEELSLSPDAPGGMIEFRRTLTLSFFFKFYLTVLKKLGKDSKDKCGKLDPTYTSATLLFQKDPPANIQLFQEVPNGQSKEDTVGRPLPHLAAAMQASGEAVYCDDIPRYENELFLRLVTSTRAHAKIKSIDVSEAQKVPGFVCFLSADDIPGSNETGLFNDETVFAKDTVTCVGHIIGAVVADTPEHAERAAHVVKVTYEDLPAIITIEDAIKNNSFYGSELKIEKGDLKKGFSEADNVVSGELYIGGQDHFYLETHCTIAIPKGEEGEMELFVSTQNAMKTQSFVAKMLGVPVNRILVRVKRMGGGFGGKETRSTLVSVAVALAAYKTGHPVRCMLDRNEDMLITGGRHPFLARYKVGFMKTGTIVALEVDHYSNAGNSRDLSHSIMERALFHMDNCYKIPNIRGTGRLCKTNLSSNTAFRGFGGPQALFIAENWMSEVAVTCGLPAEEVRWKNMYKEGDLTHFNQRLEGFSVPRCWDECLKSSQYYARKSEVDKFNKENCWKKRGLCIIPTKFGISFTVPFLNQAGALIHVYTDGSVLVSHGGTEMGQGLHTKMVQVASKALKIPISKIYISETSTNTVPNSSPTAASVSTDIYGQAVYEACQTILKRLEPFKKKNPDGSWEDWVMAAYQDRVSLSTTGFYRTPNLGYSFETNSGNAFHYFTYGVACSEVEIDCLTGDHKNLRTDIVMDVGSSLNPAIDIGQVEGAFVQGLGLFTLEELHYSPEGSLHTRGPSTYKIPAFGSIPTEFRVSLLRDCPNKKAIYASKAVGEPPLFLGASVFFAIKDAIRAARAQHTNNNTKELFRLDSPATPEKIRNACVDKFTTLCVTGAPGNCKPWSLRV

`N#Cc1cc(-n2cc(C(=O)O)cn2)ncc1-c1cccc(Cl)c1F` [Compound 41, 1-[4-cyano-5-(3-chloro-2-fluorophenyl)pyridin-2-yl]-1H-pyrazole-4-carboxylic acid] showed an IC50 of 1 to 5 nM.
`N#Cc1cc(-n2cc(C(=O)O)cn2)ncc1-c1ccc(C(=O)O)cc1` [Compound 42, 1-[5-(4-carboxyphenyl)-4-cyanopyridin-2-yl]-1H-pyrazole-4-carboxylic acid] showed an IC50 of 1 to 5 nM.
With `N#Cc1cc(-n2cc(C(=O)O)cn2)ncc1-c1ccc(C(F)(F)F)cc1` [Compound 43, 1-{4-cyano-5-[4-(trifluoromethyl)phenyl]pyridin-2-yl}-1H-pyrazole-4-carboxylic acid] the IC50 was 1 to 5 nM.
With `N#Cc1cc(-n2cc(C(=O)O)cn2)ncc1-c1ccc(OC(F)(F)F)cc1` [Compound 44, 1-{4-cyano-5-[4-(trifluoromethoxy)phenyl]pyridin-2-yl}-1H-pyrazole-4-carboxylic acid] the IC50 was 1 to 5 nM.
`N#Cc1cc(-n2cc(C(=O)O)cn2)ncc1-c1cccc(C(F)(F)F)c1` [Compound 45, 1-{4-cyano-5-[3-(trifluoromethyl)phenyl]pyridin-2-yl}-1H-pyrazole-4-carboxylic acid] showed an IC50 of 5 to 10 nM.
With `N#Cc1cc(-n2cc(C(=O)O)cn2)ncc1-c1cccc(OC(F)F)c1` [Compound 46, 1-{4-cyano-5-[3-(difluoromethoxy)phenyl]pyridin-2-yl}-1H-pyrazole-4-carboxylic acid] the IC50 was 5 to 10 nM.
`CC(C)c1ccc(-c2cnc(-n3cc(C(=O)O)cn3)cc2C#N)cc1` [Compound 47, 1-[4-cyano-5-[4-(propane-2-yl)phenyl]pyridin-2-yl}-1H-pyrazole-4-carboxylic acid] showed an IC50 of 1 to 5 nM.
`CC(C)c1cccc(-c2cnc(-n3cc(C(=O)O)cn3)cc2C#N)c1` [Compound 48, 1-{4-cyano-5-[3-(propane-2-yl)phenyl]pyridine-2-yl}-1H-pyrazole-4-carboxylic acid] showed an IC50 of 1 to 5 nM.
With `Cc1cc(F)ccc1-c1cnc(-n2cc(C(=O)O)cn2)cc1C#N` [Compound 49, 1-[4-cyano-5-(4-fluoro-2-methylphenyl)pyridin-2-yl]-1H-pyrazole-4-carboxylic acid] the IC50 was ≥ 10 nM.
Work on `COc1cc(F)ccc1-c1cnc(-n2cc(C(=O)O)cn2)cc1C#N` [Compound 50, 1-[4-cyano-5-(4-fluoro-2-methoxyphenyl)pyridin-2-yl]-1H-pyrazole-4-carboxylic acid] yielded an IC50 of 1 to 5 nM.
Work on `Cc1cc(-c2cnc(-n3cc(C(=O)O)cn3)cc2C#N)ccc1Cl` [Compound 51, 1-[4-cyano-5-(4-chloro-3-methylphenyl)pyridin-2-yl]-1H-pyrazole-4-carboxylic acid] yielded an IC50 of 1 to 5 nM.
`CC(C)Oc1ccc(-c2cnc(-n3cc(C(=O)O)cn3)cc2C#N)cc1` [Compound 52] gave an IC50 of 1 to 5 nM.
`CC(C)(C)c1ccc(-c2cnc(-n3cc(C(=O)O)cn3)cc2C#N)cc1` [Compound 53, 1-[5-(4-tert-butylphenyl)-4-cyanopyridin-2-yl]-1H-pyrazole-4-carboxylic acid] gave an IC50 of 1 to 5 nM.
`N#Cc1cc(-n2cc(C(=O)O)cn2)ncc1-c1ccc(Oc2ccccc2)cc1` [Compound 54, 1-[4-cyano-5-(4-phenoxyphenyl)pyridin-2-yl]-1H-pyrazole-4-carboxylic acid] was tested, and the IC50 was 1 to 5 nM.
Compound `COCc1ccc(-c2cnc(-n3cc(C(=O)O)cn3)cc2C#N)cc1` [Compound 55, 1-{4-cyano-5-[4-(methoxymethyl)phenyl]pyridin-2-yl}-1H-pyrazole-4-carboxylic acid] has an IC50 of 1 to 5 nM.
For `CC(C)COc1cccc(-c2cnc(-n3cc(C(=O)O)cn3)cc2C#N)c1` [Compound 56], the IC50 was 5 to 10 nM.
`N#Cc1cc(-n2cc(C(=O)O)cn2)ncc1-c1ccc2ccccc2c1` [Compound 57, 1-[4-cyano-5-(naphthalen-2-yl)pyridin-2-yl]-1H-pyrazole-4-carboxylic acid] showed an IC50 of 1 to 5 nM.
`COc1ccncc1-c1cnc(-n2cc(C(=O)O)cn2)cc1C#N` [Compound 58, 1-[4-cyano-5-(4-methoxypyridin-3-yl)pyridin-2-yl]-1H-pyrazole-4-carboxylic acid] was tested, and the IC50 was ≥ 10 nM.
For `CN(C)c1ccc(-c2cnc(-n3cc(C(=O)O)cn3)cc2C#N)cn1` [Compound 59, 1-{4-cyano-5-[6-(dimethylamino)pyridin-3-yl]pyridin-2-yl}-1H-pyrazole-4-carboxylic acid], the IC50 was 1 to 5 nM.
`N#Cc1cc(-n2cc(C(=O)O)cn2)ncc1-c1cncc(F)c1` [Compound 60, 1-[4-cyano-5-(5-fluoropyridin-3-yl)pyridin-2-yl]-1H-pyrazole-4-carboxylic acid] was tested, and the IC50 was ≥ 10 nM.
`N#Cc1cc(-n2cc(C(=O)O)cn2)ncc1-c1csc2ccccc12` [Compound 61, 1-[5-(1-benzothiophen-3-yl)-4-cyanopyridin-2-yl]-1H-pyrazole-4-carboxylic acid] showed an IC50 of 1 to 5 nM.
In the case of `N#Cc1cc(-n2cc(C(=O)O)cn2)ncc1-c1ccncc1` [Compound 62, 1-[4-cyano-5-(pyridin-4-yl)pyridin-2-yl]-1H-pyrazole-4-carboxylic acid], the IC50 is reported as ≥ 10 nM.
For `CSc1ccc(-c2cnc(-n3cc(C(=O)O)cn3)cc2C#N)cc1` [Compound 63, 1-{4-cyano-5-[4-(methylsulfanyl)phenyl]pyridin-2-yl}-1H-pyrazole-4-carboxylic acid], the IC50 was 1 to 5 nM.
Work on `N#Cc1cc(-n2cc(C(=O)O)cn2)ncc1-c1ccc(N2CCOCC2)cc1` [Compound 64, 1-{4-cyano-5-[4-(morpholine-4-yl)phenyl]pyridine-2-yl}-1H-pyrazole-4-carboxylic acid] yielded an IC50 of 1 to 5 nM.
`N#Cc1cc(-n2cc(C(=O)O)cn2)ncc1-c1ccc(-c2ccccc2)cc1` [Compound 65, 1-[4-cyano-5-(4-phenylphenyl)pyridine-2-yl]-1H-pyrazole-4-carboxyic acid] showed an IC50 of 1 to 5 nM.
In the case of `N#Cc1cc(-n2cc(C(=O)O)cn2)ncc1-c1ccc(OCc2ccccc2)cc1` [Compound 66, 1-{5-[4-(benzyloxy)phenyl]-4-cyanopyridine-2-yl}-1H-pyrazole-4-carboxylic acid], the IC50 is reported as 1 to 5 nM.
Compound `CN(C)c1cccc(-c2cnc(-n3cc(C(=O)O)cn3)cc2C#N)c1` [Compound 67, 1-{4-cyano-5-[3-(dimethylamino)phenyl]pyridine-2-yl}-1H-pyrazole-4-carboxylic acid] has an IC50 of 5 to 10 nM.
Work on `N#Cc1cc(-n2cc(C(=O)O)cn2)ncc1-c1ccc(N)cc1` [Compound 68, 1-[5-(4-aminophenyl)-4-cyanopyridine-2-yl]-1H-pyrazole-4-carboxylic acid] yielded an IC50 of 1 to 5 nM.
`CS(=O)(=O)Nc1ccc(-c2cnc(-n3cc(C(=O)O)cn3)cc2C#N)cc1` [Compound 69, 1-[4-cyano-5-(4-methanesulfonamidophenyl)pyridine-2-yl]-1H-pyrazole-4-carboxylic acid] gave an IC50 of 1 to 5 nM.
Work on `N#Cc1cc(-n2cc(C(=O)O)cn2)ncc1-c1ccc(C(=O)N2CCOCC2)cc1` [Compound 70, 1-(4-cyano-5-{4-[(morpholine-4-yl)carbonyl]phenyl}pyridine-2-yl)-1H-pyrazole-4-carboxylic acid] yielded an IC50 of 1 to 5 nM.
For `N#Cc1cc(-n2cc(C(=O)O)cn2)ncc1-c1cccc([N+](=O)[O-])c1` [Compound 72, 1-[4-cyano-5-(3-nitrophenyl)pyridin-2-yl]-1H-pyrazole-4-carboxylic acid], the IC50 was ≥ 10 nM.
`N#Cc1cc(-n2cc(C(=O)O)cn2)ncc1-c1ccc(C(=O)c2ccccc2)cc1` [Compound 73, 1-[5-(4-benzoylphenyl)-4-cyanopyridin-2-yl]-1H-pyrazole-4-carboxylic acid] gave an IC50 of 1 to 5 nM.
For `N#Cc1cc(-n2cc(C(=O)O)cn2)cnc1-c1ccccc1` [Compound 75, 1-(5-cyano-6-phenylpyridin-3-yl)-1H-pyrazole-4-carboxylic acid], the IC50 was ≥ 10 nM.
In the case of `N#Cc1cc(-n2cc(C(=O)O)cn2)cnc1-c1ccccc1F` [Compound 76, 1-[5-cyano-6-(2-fluorophenyl)pyridin-3-yl]-1H-pyrazole-4-carboxylic acid], the IC50 is reported as ≥ 10 nM.
In the case of `N#Cc1cc(-n2cc(C(=O)O)cn2)cnc1-c1ccc(F)cc1F` [Compound 77, 1-[5-cyano-6-(2,4-difluorophenyl)pyridin-3-yl]-1H-pyrazole-4-carboxylic acid], the IC50 is reported as ≥ 10 nM.
With `Cc1ccc(F)c(-c2ncc(-n3cc(C(=O)O)cn3)cc2C#N)c1` [Compound 79, 1-[5-cyano-6-(2-fluoro-5-methylphenyl)pyridin-3-yl]-1H-pyrazole-4-carboxylic acid] the IC50 was ≥ 10 nM.
`N#Cc1cc(-n2cc(C(=O)O)cn2)cnc1-c1cc(F)ccc1F` [Compound 80, 1-[5-cyano-6-(2,5-difluorophenyl)pyridin-3-yl]-1H-pyrazole-4-carboxylic acid] was tested, and the IC50 was ≥ 10 nM.
`N#Cc1cc(-n2cc(C(=O)O)cn2)cnc1-c1cccc(F)c1F` [Compound 81, 1-[5-cyano-6-(2,3-difluorophenyl)pyridin-3-yl]-1H-pyrazole-4-carboxylic acid] was tested, and the IC50 was ≥ 10 nM.
`Cc1cc(-c2ncc(-n3cc(C(=O)O)cn3)cc2C#N)ccc1F` [Compound 82, 1-[5-cyano-6-(4-fluoro-3-methylphenyl)pyridin-3-yl]-1H-pyrazole-4-carboxyic acid] was tested, and the IC50 was ≥ 10 nM.
